Measured values reported in patent US20030152577A1, “Dye-bioconjugates for simultaneous optical diagnostic and therapeutic applications” (MALLINCKRODT INC., priority 2002, published 2003).

Assays:
Design in all cases: species or system male Lewis rats
[1] = system: Dunning R3327-H (prostate) tumor; assay: Non-invasive in vivo fluorescence imaging of Dunning R3327-H tumor in rats; conditions: 0.5 ml of 0.42 mg/ml in saline, tail vein, images at 2 and 30 minutes post administration
Excerpt: (§1) A non-invasive in vivo fluorescence imaging apparatus was employed to assess the efficacy of indocyanine green (ICG) in three different rat tumor cell lines of the inventive contrast agents developed for tumor detection in animal models. A LaserMax Inc. laser diode of nominal wavelength 780 nm and nominal power of 40 mW was used. The detector was a Princeton Instruments model RTE/CCD-1317-K/2 CCD camera with a Rodenstock 10 mm F2 lens (stock #542.032.002.20) attached. An 830 nm interference lens (CVI Laser Corp., part # F10-830-4-2) was mounted in front of the CCD input lens, such that only emitted fluorescent light from the contrast agent was imaged.
(§2) Three tumor cell lines, DSL 6/A (pancreatic), Dunning R3327-H (prostate), and CA20948 (pancreatic), which are rich in somatostatin (SST-2) receptors were induced into male Lewis rats by solid implant technique in the left flank area (Achilefu et al., Invest Radiology, 2000, pp. 479-485). Palpable masses were detected nine days post implant.

[2] = system: DSL 6/A (pancreatic) tumor; assay: Non-invasive in vivo fluorescence imaging of DSL 6/A tumor in rats; conditions: 0.5 ml of 0.42 mg/ml in saline, tail vein, images at 2 and 30 minutes post administration
Excerpt: as §1, §2

[3] = system: CA20948 (pancreatic) tumor, rich in somatostatin (SST-2) receptors; assay: Non-invasive in vivo fluorescence imaging of CA20948 tumor bearing rat
Excerpt: as §1, §2
The peptide, octreotate, is known to target somatostatin (SST-2) receptors. Therefore, the cyano-octreotates conjugate, Cytate 1, was prepared as described in Example 4. The pancreatic acinar carcinoma, CA20948, was induced into male Lewis rats as described in Example 9.
Using the CCD camera apparatus, dye localization in the tumor was observed. […]

`CC1(C)C(/C=C/C=C/C=C/C=C2\N(CCCCS(=O)(=O)O)c3ccc4ccccc4c3C2(C)C)=[N+](CCCCS(=O)(=O)[O-])c2ccc3ccccc3c21` [ICG, indocyanine green] was tested, and the “perfusion of the agent into the tumor” value [1] was “slow perfusion of the agent into the tumor over time”, the “perfusion of the agent into the tumor” value [2] was “slow perfusion of the agent into the tumor over time” and the “perfusion of the agent into the tumor” value ([3]; 0.5 ml of 0.42 mg/ml in saline, tail vein, images at 2 and 30 minutes post administration) was “only a slight and transient perfusion that was cleared after only 30 minutes post injection”. The “non-specific localization into the tumor line” value ([3]; compared to the other two lines) was “no non-specific localization”.
